How the values were obtained:
SK-BR-3 cells = assay: Cytotoxicity test (MTS, cell survival rate, IC50, combination index); type: cell-based; settings: Homo sapiens, 48 hours
Protocol: Culture SK-BR-3 cells in a 24-well culture plate, and each well has 10^4 cells. After cells have attached to the culture plate for 20-24 hours, remove the culture liquid, and rinse the cells with PBS. Use Dulbecco's Modified Eagle Medium (DMEM) to dilute the drug compositions GAN, CCM, CHC/GAN, CHC/CCM, and CHC/GAN-CCM. Add the diluted drug compositions to the cells, and co-culture each drug composition and the cells for 48 hours. Remove DMEM, and flush the product of co-culture with PBS. Add MTS and DMEM (1:5 (v/v)) into each well of the cell culture plate, and culture them for 2-4 hours. Use a microplate reader to measure the absorptivity of the light having a wavelength of 490 nm, whereby to estimate the cell survival rates. The cell survival rate can be used to determine the half inhibitory concentration (IC50) and the combination index (CI) of two drugs. CHC/GAN and CHC/CCM can more effectively kill cells than the drugs in form of free molecules. […] Therefore, the drug composition carried by CHC nanoparticles can more effectively treat breast cancer in smaller dosage. Especially, while ganetespib is carried by CHC nanocarriers, the treating effect may be increased 60-70 times. […] The results also indicate that the effective concentration of the drug composition of the present invention may be lower than that of the conventional drug composition. […]

[1] = Release of drugs from dialysis bag in pH 7.4 PBS buffer solution; type: physicochemical; settings: 37° C.
Protocol: FIG. 3A and FIG. 3B show the release curves of ganetespib. FIG. 3C and FIG. 3D show the release curves of curcumin For free ganetespib, the dialysis bag stops release after 8 hours, and about 73% ganetespib is released. For ganetespib in the drug composition, the dialysis bag continues release until as long as 12 hours has elapsed, and about 80% ganetespib is released. As indicated by the arrows in FIG. 3B, CHC/GAN where ganetespib is encapsulated by CHC releases ganetespib more slowly and has higher content of ganetespib. It is because CHC protects ganetespib from being damaged by the environment and makes ganetespib release slowly. For free curcumin, although the dialysis bag have continued releasing curcumin for as long as 168 hours, the accumulated released curcumin is only about 8%. The slow release rate of free curcumin is owing to low aqueous solubility of curcumin Low aqueous solubility of curcumin also leads to low bioavailability of curcumin. The release rate of the curcumin in CHC/CCM is about the same as the free curcumin. The accumulated released curcumin of the curcumin in CHC/CCM is about 9%, slightly higher than that of the free curcumin. However, it can be seen in FIG. 3D: the difference therebetween increases with time.

Row | SMILES | IC50 (SK-BR-3 cells; curcumin) [µg/mL] | accumulated released curcumin ([1]; 168 hours) | IC50 (SK-BR-3 cells; ganetespib) [µg/mL] | time after which release of ganetespib stops [1] [h] | ganetespib released ([1]; at the time release stops)
1 | COc1cc(/C=C/C(=O)CC(=O)/C=C/c2ccc(O)c(OC)c2)ccc1O [CCM, curcumin] | 12 | about 8% |  |  | 
2 | CC(C)c1cc(-c2n[nH]c(=O)n2-c2ccc3c(ccn3C)c2)c(O)cc1O [GAN, ganetespib] |  |  | 0.00188 | 8 | about 73%
